Earlier results, collected in publication PMC11600176 (JACS Au, 2024).

Details: aerated acetonitrile

**Q.** Which “Φf fluorescence quantum yield of the standard” value does the source give for `CCCN1C(=O)c2cccc3c(N)ccc(c23)C1=O` [N-propyl-4-amino-1,8-naphthalimide] here?
**A.** 0.48
